{"source": "patent US20250032506A1", "about": "“GLUCOCORTICOID RECEPTOR BLOCKADE WITH MIFEPRISTONE TO SENSITIZE PANCREATIC CANCER TO IMMUNOTHERAPY” (BOARD OF REGENTS, THE UNIVERSITY OF TEXAS SYSTEM, priority 2021, published 2025)", "key": {"HPAC cells": {"test_system": "HPAC cells", "experiment": "qPCR and immunoblotting of PD-L1 and MHC-I in HPAC cells", "type": "cell-based, human", "details": "MIFE 20 μM (qPCR) or indicated doses (immunoblot), 72 h", "description": "The male PDAC cell lines HY24409 and HY24160 and the female PDAC cell line HY19636 were established from KPC mice (p48-Cre; Kras^LSL-G12D/+; Trp53^loxP/+) that were backcrossed to a C57BL/6 background (purity: ˜ 98%). (See Bardeesy, N., et al. supra). The human PDAC cell lines SU86.86 ([…]), SW1990 ([…]), BXPC-3 ([…]), Miapaca-2 ([…]), Capan-1 ([…]), ASPC-1 ([…]), Hs766T ([…]), Colo357/FG ([…]), L3.6PL ([…]), Panc28 ([…]), Capan-2 ([…]), CF-Pac-1 ([…]), Panc3 (sex unknown), Panc1 ([…]), Panc48 (sex unknown), and HPAC ([…]) were from Mien-Chie Hung's lab stock. The HY24409, HY24160, HY19636, SU86.86, SW1990, and Hs766T cell lines were cultured in RPMI 1640 (Corning, 10-041-CV) supplemented with 10% fetal bovine serum (FBS) (Gibco, 10438-034) and 1% penicillin/streptomycin (Sigma, P4333). The BXPC-3, Miapaca-2, Capan-1, ASPC-1, Colo357/FG, L3.6PL, Panc28, Capan-2, CF-Pac-1, Panc3, Panc1, Panc48, and HPAC cell lines were cultured in DMEM/F-12 (Corning, 10-092-CV) supplemented with 10% FBS and 1% penicillin/streptomycin. Cells were grown in a humidified incubator with 5% CO2 at 37° C., and low-passage stocks were maintained in a centralized lab cell bank. Short tandem repeat profiling and mycoplasma tests were done by the Cytogenetics and Cell Authentication Core at MD Anderson Cancer Center. […]"}, "HY24409 cells": {"test_system": "HY24409 cells", "experiment": "Chemokine array of conditioned medium", "type": "cell-based, mouse", "details": "mifepristone 20 μM, 48 hours", "method": "Chemokine array was performed with conditioned medium from HY24409 cells treated with vehicle or mifepristone (20 μM, 48 hours) using the Proteome Profiler Mouse Chemokine Array Kit (R&D system, ARY020) following the manufacturer's instructions."}, "SU86.86 cells": {"test_system": "SU86.86 cells", "experiment": "qPCR, immunoblotting and flow cytometry of PD-L1 and MHC-I pathway expression in SU86.86 cells", "type": "cell-based, human", "method": "(See Bardeesy, N., et al. supra). The human PDAC cell lines SU86.86 ([…]), SW1990 ([…]), BXPC-3 ([…]), Miapaca-2 ([…]), Capan-1 ([…]), ASPC-1 ([…]), Hs766T ([…]), Colo357/FG ([…]), L3.6PL ([…]), Panc28 ([…]), Capan-2 ([…]), CF-Pac-1 ([…]), Panc3 (sex unknown), Panc1 ([…]), Panc48 (sex unknown), and HPAC ([…]) were from Mien-Chie Hung's lab stock. […] The BXPC-3, Miapaca-2, Capan-1, ASPC-1, Colo357/FG, L3.6PL, Panc28, Capan-2, CF-Pac-1, Panc3, Panc1, Panc48, and HPAC cell lines were cultured in DMEM/F-12 (Corning, 10-092-CV) supplemented with 10% FBS and 1% penicillin/streptomycin. Cells were grown in a humidified incubator with 5% CO2 at 37° C., and low-passage stocks were maintained in a centralized lab cell bank. Short tandem repeat profiling and mycoplasma tests were done by the Cytogenetics and Cell Authentication Core at MD Anderson Cancer Center.\nMembranes were blocked with 10% non-fat milk in TBST and incubated with the primary antibody at 4° C. overnight, followed by incubation with the secondary antibody conjugated with horseradish peroxidase (HRP)."}, "GR": {"target": "GR (Homo sapiens, UniProt P04150)", "sequence (P04150 whole entry)": "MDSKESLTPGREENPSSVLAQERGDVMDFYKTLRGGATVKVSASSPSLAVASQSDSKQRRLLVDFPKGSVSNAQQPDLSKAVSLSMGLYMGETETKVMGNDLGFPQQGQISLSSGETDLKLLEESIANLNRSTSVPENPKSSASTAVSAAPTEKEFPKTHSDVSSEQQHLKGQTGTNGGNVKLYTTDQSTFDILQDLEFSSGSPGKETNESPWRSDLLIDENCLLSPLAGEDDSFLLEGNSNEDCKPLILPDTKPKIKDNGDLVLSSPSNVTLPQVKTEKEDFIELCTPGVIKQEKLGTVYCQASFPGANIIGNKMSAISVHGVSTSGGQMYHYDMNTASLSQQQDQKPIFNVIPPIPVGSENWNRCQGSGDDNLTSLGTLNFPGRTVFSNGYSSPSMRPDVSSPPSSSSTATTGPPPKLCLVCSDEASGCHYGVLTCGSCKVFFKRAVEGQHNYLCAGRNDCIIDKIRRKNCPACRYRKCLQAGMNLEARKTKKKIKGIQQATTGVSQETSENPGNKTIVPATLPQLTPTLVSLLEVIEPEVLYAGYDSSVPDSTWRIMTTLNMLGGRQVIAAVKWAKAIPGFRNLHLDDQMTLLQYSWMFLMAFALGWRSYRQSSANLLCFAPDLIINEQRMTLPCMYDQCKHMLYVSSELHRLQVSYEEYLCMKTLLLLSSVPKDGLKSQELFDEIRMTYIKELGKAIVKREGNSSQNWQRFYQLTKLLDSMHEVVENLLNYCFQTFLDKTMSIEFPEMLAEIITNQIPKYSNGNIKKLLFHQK", "details": "ChIP-qPCR; co-treatment with mifepristone 100 nM and dexamethasone 100 nM, 30 min; SU86.86", "method": "SU86.86 cells were grown to 40% confluence in 15-cm dishes in RPMI with 10% FBS, followed by 72-hour incubation in phenol red-free RPMI supplemented with 5% charcoal-stripped FBS. […] Cells were cross-linked with 1% formaldehyde, quenched with glycine, and harvested. After cell lysis with ChIP lysis buffer, cells were digested with Micrococcal Nuclease and sonicated to achieve the majority of DNA fragments between 200 bp and 500 bp. […] Chromatin was eluted from GR ChIP following the manufacturer's protocol."}}}
{"smiles": "CC#C[C@]1(O)CC[C@H]2[C@@H]3CCC4=CC(=O)CCC4=C3[C@@H](c3ccc(N(C)C)cc3)C[C@@]21C", "note": "[mifepristone]", "values": [{"measurement": "MHC-I at both mRNA and protein levels", "setting": "HPAC cells", "result": "significantly upregulated"}, {"measurement": "PD-L1 at both mRNA and protein levels", "setting": "HPAC cells", "result": "downregulated"}, {"measurement": "chemokines secreted by HY24409 cells", "setting": "HY24409 cells", "result": "no chemokines that showed a change after mifepristone treatment were found"}, {"measurement": "PD-L1 protein", "setting": "SU86.86 cells; Western blot and flow cytometric analysis, MIFE 72 h", "result": "downregulated"}, {"measurement": "MHC-I and B2M proteins", "setting": "SU86.86 cells; Western blot and flow cytometry, MIFE 72 h", "result": "upregulation"}, {"measurement": "mRNA levels of components in the MHC-I pathway, including HLA-A, HLA-B, HLA-C, B2M, SEC61B, and SEC61G", "setting": "SU86.86 cells; qPCR, MIFE 20 μM, 72 h", "result": "increased"}, {"measurement": "mRNA levels of immune checkpoint ligands, including PD-L1, CD47, TDO, and SIGLEC15", "setting": "SU86.86 cells; qPCR, MIFE 20 μM, 72 h", "result": "decreased"}, {"measurement": "dexamethasone-induced binding of promoter sites to GR", "setting": "GR", "result": "reversed"}]}
